US5670487A, “Composition for protecting and/or combating blemishes on and/or ageing of the skin, and uses thereof” (L'Oreal, priority 1995, dated 1997)

Tests used:
skin = test: UVA sun protection factor (PF = protected MPD/non-protected MPD) on the back of volunteers; format: in vivo, human (healthy adults of both sexes); details: for UVA skin protection (assessment in words): based on the UVA sun protection factors 1.6, 2.7 and 3.4; for UVA sun protection factor: 2±0.02 μl/cm^2, UVA 320-400 nm, read approximately 2 h after exposure
Experimental: Potentiation of the sun protection factor
The aim of the test is to show the ability of the compositions of the invention to protect the skin against UVA by virtue of a high UVA protection factor.
Ten individuals were tested. They were healthy adults of both sexes. An area of skin located on the back of each of the volunteers was subjected to solar exposure after defining the skin type. The exposure was carried out with a UVA spectrum alone (320 nm to 400 nm), supplied by a 150 W xenon lamp fitted with a WG 335 filter 3 mm in thickness and a UG 11 filter 1 mm in thickness. The UV radiation was conducted by 6 liquid, flexible light guides, making it possible to deliver doses of from 6 to 45 joules/cm^2 in a 50% geometric progression.
The application was a single dose, in the open air, of 2±0.02 μl/cm^2, i.e., approximately 0.15 ml of test product per individual, on an area of 75 cm^2, measured with a sterile 1 ml Tuberculin syringe graduated to 1/1000 and having a centered cone.
Exposure was approximately 15 min after application of the product. Macroscopic examination of the exposed areas of the skin was performed approximately 2 h after exposure, to evaluate the immediate and permanent pigmentation reactions. The minimum pigmenting dose on the area protected by the product applied (protected MPD) and that on the area in which no product had been applied (non-protected MPD) was performed simultaneously.
The protection factor PF is then calculated as follows:
PF=protected MPD/non-protected MPD
The test was carried out with 3 compositions, each having the same support, containing arbutin, the UV screening agent (terephthalylidene dicamphor sulphonic acid), and the combination of arbutin and the UV screening agent, respectively.

[1] = Anti-free-radical activity: inhibition of the production of ethylene from methionine under UVA; format: biochemical; details: UVA 365 nm, 1 J/cm^2, pH 7.4, average of 3 tests
Experimental: The following were introduced in order into a Petri dish 32 mm in diameter:
1.4 ml of 50 mM phosphate buffer (pH=7.4), 100 μl of 200 mM methionine solution
100 μl of 4 mM ferric chloride solution,
100 μl of 4 mM EDTA (ethylenediaminetetraacetic acid) solution, 100 μl of 400 mM NADH (nicotinamideadeninedinucleotide, reduced form) solution, 100 μl of 2 mM riboflavin solution.
Total volume of the mixture: 2 ml.
The Petri dish was then placed in an aluminum crucible and covered with a quartz cell so as to be exposed to UVA rays (365 nm) at a dose of 1 J/cm^2. The mixture, composed of NADH, riboflavin, ferric chloride and EDTA, when subjected to exposure to the UVA rays, generates reduced oxygen species: O2 .cndot.^-, H2 O2, and mainly the hydroxyl radical .cndot.OH. The latter reacts with methionine to release ethylene. The amount of ethylene was measured by gas chromatography.
The smaller the amount of free radicals formed, the smaller the amount of ethylene released. The results are expressed as a percentage of inhibitory power corresponding to the percentage decrease in the production of ethylene relative to the control (containing 100 μl of phosphate buffer replacing the test product).
The following substances studied were introduced using a micropipette: […]
terephthalylidene dicamphor sulphonic acid […]

Structure (SMILES): OC[C@H]1O[C@@H](Oc2ccc(O)cc2)[C@H](O)[C@@H](O)[C@@H]1O [arbutin, hydroquinone-beta-D-glucopyranoside]
- UVA skin protection (assessment in words) (skin): negligible skin protection
- UVA sun protection factor (skin; composition with 5% arbutin): 1.6
- % inhibition (percentage decrease in the production of ethylene relative to the control) ([1]; 0.2% arbutin): 39.0 ± 0.6%

Structure (SMILES): CC1(C)C2CCC1(CS(=O)(=O)O)C(=O)C2=Cc1ccc(C=C2C(=O)C3(CS(=O)(=O)O)CCC2C3(C)C)cc1 [benzene-1,4-bis(3-methylidenecamphor-10-sulphonic acid)]
- UVA skin protection (assessment in words) (skin): significant skin protection
- UVA sun protection factor (skin; composition with 1% terephthalylidene dicamphor sulphonic acid): 2.7
- % inhibition (percentage decrease in the production of ethylene relative to the control) ([1]; 0.2% terephthalylidene dicamphor sulphonic acid): 44.7 ± 1.7%
